Test system: c-myc in 22RV-1 cells
Experiment: Human c-myc ELISA assay
Format: cell-based
Conditions: Homo sapiens; for Emax: 22Rv1, 18 h, read-out: Degradation of BRD4: Maximum inhibition (%) c-Myc ELISA in 22RV1 cells; for DC50: 22Rv1, read-out: Degradation of BRD4: DC50 (uM) c-Myc ELISA in 22RV1 cells
Method in brief: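 22RV-1 cells treated 18 h with 8-point 1:3 compound dilutions (final top 300 nM or 1 μM, 0.1% DMSO). Cells lysed in RIPA buffer with protease/phosphatase inhibitors, and c-myc protein in cleared lysate quantified by ELISA against a standard curve. DC50 reported for c-myc suppression.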

Row | SMILES | DC50 | Emax
1 | Cc1sc2c(c1C)C(c1ccc(Cl)cc1)=N[C@@H](CC(=O)N[C@H]1C[C@H](Oc3ccc(CC(=O)N[C@H](C(=O)N4C[C@H](O)C[C@H]4C(=O)N[C@@H](C)c4ccc(-c5cnnn5C)cc4)C(C)(C)C)cc3)C1)c1nnc(C)n1-2 [Example 250] | > 1 µM | 16.1%
2 | Cc1ncsc1-c1ccc(CNC(=O)[C@@H]2C[C@@H](O)CN2C(=O)[C@@H](NC(=O)COCCOCCNC(=O)C[C@@H]2N=C(c3ccc(Cl)cc3)c3c(sc(C)c3C)-n3c(C)nnc32)C(C)(C)C)cc1 [Example 41, (2S,4R)-1-[(2S)-2-{2-[2-(2-{2-[(9S)-7-(4-chlorophenyl)-4,5,13-trimethyl-3-thia-1,8,11,12-tetraazatricyclo[8.3.0.0^2,^6]trideca-2(6),4,7,10,12-pentaen-9-yl]acetamido}ethoxy)ethoxy]acetamido}-3,3-dimethylbutanoyl]-4-hydroxy-N-{[4-(4-methyl-1,3-thiazol-5-yl)phenyl]methyl}pyrrolidine-2-carboxamide] | 0.1 to 1 µM | 94%
3 | Cc1ncsc1-c1ccc([C@H](C)NC(=O)[C@@H]2C[C@@H](O)CN2C(=O)[C@@H](C(C)C)n2cc(-c3cc(F)cc(O[C@H]4C[C@@H](NC(=O)C[C@@H]5N=C(c6ccc(Cl)cc6)c6c(sc(C)c6C)-n6c(C)nnc65)C4)c3)cn2)cc1 [Example 246] | 0.1 to 1 µM | 83%
4 | Cc1sc2c(c1C)C(c1ccc(Cl)cc1)=N[C@@H](CC(=O)N[C@H]1C[C@@H](Oc3ccc4oc(C(=O)N[C@H](C(=O)N5C[C@H](O)C[C@H]5C(=O)N[C@@H](C)c5ccc(-c6scnc6CO)cc5)C(C)(C)C)cc4c3)C1)c1nnc(C)n1-2 [Example 342, (2S,4R)-1-[(2S)-3,3-dimethyl-2-({5-[(1,3-cis)-3-{2-[(9S)-7-(4-chlorophenyl)-4,5,13-trimethyl-3-thia-1,8,11,12-tetraazatricyclo[8.3.0.0^2,^6]trideca-2(6),4,7,10,12-pentaen-9-yl]acetamido}cyclobutoxy]-1-benzofuran-2-yl}formamido)butanoyl]-4-hydroxy-N-[(1S)-1-{4-[4-(hydroxymethyl)-1,3-thiazol-5-yl]phenyl}ethyl]pyrrolidine-2-carboxamide] | < 0.01 µM | 100%
5 | Cc1ncsc1-c1ccc([C@H](C)NC(=O)[C@H]2C[C@H](O)CN2C(=O)[C@@H](NC(=O)COc2ccc(O[C@H]3C[C@@H](NC(=O)C[C@@H]4N=C(c5ccc(Cl)cc5)c5c(sc(C)c5C)-n5c(C)nnc54)C3)nc2)C(C)(C)C)cc1 [Example 169] | > 1 µM | 42.2%
6 | Cc1ncsc1-c1ccc(CNC(=O)[C@@H]2C[C@@H](O)CN2C(=O)[C@@H](NC(=O)COCCCCn2cc(-c3ccc([C@@H](C)NC(=O)C[C@@H]4N=C(c5ccc(Cl)cc5)c5c(sc(C)c5C)-n5c(C)nnc54)cc3)cn2)C(C)(C)C)cc1 [Example 33, (2S,4R)-1-[(2S)-2-{2-[4-(4-{4-[(1R)-1-{2-[(9S)-7-(4-chlorophenyl)-4,5,13-trimethyl-3-thia-1,8,11,12-tetraazatricyclo[8.3.0.0^2,^6]trideca-2(6),4,7,10,12-pentaen-9-yl]acetamido}ethyl]phenyl}-1H-pyrazol-1-yl)butoxy]acetamido}-3,3-dimethylbutanoyl]-4-hydroxy-N-{[4-(4-methyl-1,3-thiazol-5-yl)phenyl]methyl}pyrrolidine-2-carboxamide] | 0.01 to 0.1 µM | 100%
7 | Cc1ncsc1-c1ccc([C@H](C)NC(=O)[C@@H]2C[C@@H](O)CN2C(=O)[C@H](NC(=O)CN2CCC(O[C@H]3C[C@H](NC(=O)C[C@@H]4N=C(c5ccc(Cl)cc5)c5c(sc(C)c5C)-n5c(C)nnc54)C3)CC2)C(C)(C)C)cc1 [Example 348] | > 1 µM | 46%
8 | Cc1ncsc1-c1ccc([C@H](C)NC(=O)[C@@H]2C[C@@H](O)CN2C(=O)[C@@H](NC(=O)CN2CCC(O[C@H]3C[C@H](NC(=O)c4ccc5c6ncc(-c7c(C)noc7C)cc6n([C@H](c6ccccc6)C6CCOCC6)c5c4)C3)CC2)C(C)(C)C)cc1 [Example 365, (2S,4R)-1-[(2S)-3,3-dimethyl-2-(2-{4-[(1,3-trans)-3-[3-(dimethyl-1,2-oxazol-4-yl)-5-[(S)-oxan-4-yl(phenyl)methyl]-5H-pyrido[3,2-b]indole-7-amido]cyclobutoxy]piperidin-1-yl}acetamido)butanoyl]-4-hydroxy-N-[(1S)-1-[4-(4-methyl-1,3-thiazol-5-yl)phenyl]ethyl]pyrrolidine-2-carboxamide] | < 0.01 µM | 100%
9 | Cc1ncsc1-c1ccc(CNC(=O)[C@@H]2C[C@@H](O)CN2C(=O)[C@H](c2cc(OCCN3CCC(NC(=O)C[C@@H]4N=C(c5ccc(Cl)cc5)c5c(sc(C)c5C)-n5c(C)nnc54)CC3)no2)C(C)C)cc1 [Example 315] | > 1 µM | 11.4%
10 | Cc1ncsc1-c1ccc([C@H](C)NC(=O)[C@@H]2C[C@@H](O)CN2C(=O)[C@@H](NC(=O)CN2CCC(N3CCCN(C(=O)C[C@@H]4N=C(c5ccc(Cl)cc5)c5c(sc(C)c5C)-n5c(C)nnc54)CC3)CC2)C(C)(C)C)cc1 [Example 333] | 0.01 to 0.1 µM | 88%
11 | Cc1ncsc1-c1ccc([C@H](C)NC(=O)[C@@H]2C[C@@H](O)CN2C(=O)C(C(C)C)n2cc(-c3cc(F)cc(O[C@H](C)CNC(=O)C[C@@H]4N=C(c5ccc(Cl)cc5)c5c(sc(C)c5C)-n5c(C)nnc54)c3)cn2)cc1 (stereo partly shown) [Example 213] | 0.01 to 0.1 µM | 94.3%
12 | CCc1nnc2n1-c1sc(C)c(C)c1C(c1ccc(Cl)cc1)=N[C@H]2CC(=O)Nc1ccc(OCCCOCCCOCC(=O)N[C@H](C(=O)N2C[C@H](O)C[C@H]2C(=O)NCc2ccc(-c3scnc3C)cc2)C(C)(C)C)cc1 [Example 47] | 0.1 to 1 µM | 89%
13 | Cc1ncsc1-c1ccc([C@H](C)NC(=O)[C@@H]2C[C@@H](OC(=O)CC(C)(C)N)CN2C(=O)[C@@H](NC(=O)c2cc3cc(O[C@H]4C[C@@H](NC(=O)C[C@@H]5N=C(c6ccc(Cl)cc6)c6c(sc(C)c6C)-n6c(C)nnc65)C4)ccc3o2)C(C)(C)C)cc1 [Example 343] | 0.01 to 0.1 µM | 87%
14 | Cc1ncsc1-c1ccc(CNC(=O)[C@@H]2C[C@@H](O)CN2C(=O)[C@@H](NC(=O)COCCOCCOCCCCOc2ccc(NC(=O)C[C@@H]3N=C(c4ccc(Cl)cc4)c4c(sc(C)c4C)-n4c(C)nnc43)cc2)C(C)(C)C)cc1 [Example 14] | 0.01 to 0.1 µM | 100%

Now from value to compound, other results behind:

Row | DC50 | SMILES | Emax
15 | 0.01 to 0.1 µM | Cc1ncsc1-c1ccc(CNC(=O)[C@@H]2C[C@@H](O)CN2C(=O)[C@@H](NC(=O)COCCCOCCOc2ccc3c(c2)c2c(C(N)=O)cc(-c4c(C)noc4C)cc2n3Cc2ccccc2)C(C)(C)C)cc1 [Example 116, 9-benzyl-2-(dimethyl-1,2-oxazol-4-yl)-6-{2-[3-({[(2S)-1-[(2S,4R)-4-hydroxy-2-({[4-(4-methyl-1,3-thiazol-5-yl)phenyl]methyl}carbamoyl)pyrrolidin-1-yl]-3,3-dimethyl-1-oxobutan-2-yl]carbamoyl}methoxy)propoxy]ethoxy}-9H-carbazole-4-carboxamide] | 100%
16 | < 0.01 µM | Cc1ncsc1-c1ccc([C@H](C)NC(=O)[C@@H]2C[C@@H](O)CN2C(=O)[C@@H](NC(=O)/C=C/c2cccc(O[C@@H](C)CNC(=O)C[C@@H]3N=C(c4ccc(Cl)cc4)c4c(sc(C)c4C)-n4c(C)nnc43)c2)C(C)(C)C)cc1 [Example 158] | 96.5%
17 | < 0.01 µM | Cc1ncsc1-c1ccc(CNC(=O)[C@@H]2C[C@@H](O)CN2C(=O)[C@@H](NC(=O)COc2ccc(O[C@H]3C[C@@H](NC(=O)C[C@@H]4N=C(c5ccc(Cl)cc5)c5c(sc(C)c5C)-n5c(C)nnc54)C3)nc2)C(C)(C)C)cc1 [Example 118] | 94.4%
18 | 0.01 to 0.1 µM | Cc1ncsc1-c1ccc(CNC(=O)[C@@H]2C[C@@H](O)CN2C(=O)[C@@H](NC(=O)COCCCOCC#Cc2ccc([C@H](C)NC(=O)C[C@@H]3N=C(c4ccc(Cl)cc4)c4c(sc(C)c4C)-n4c(C)nnc43)cc2)C(C)(C)C)cc1 [Example 40] | 97.5%
19 | < 0.01 µM | Cc1ncsc1-c1ccc([C@H](C)NC(=O)[C@@H]2C[C@@H](O)CN2C(=O)[C@@H](NC(=O)Cc2ccc(-c3cn([C@@H](C)CNC(=O)C[C@@H]4N=C(c5ccc(Cl)cc5)c5c(sc(C)c5C)-n5c(C)nnc54)cn3)cc2)C(C)(C)C)cc1 [Example 341] | 98.5%
20 | 0.01 to 0.1 µM | Cc1ncsc1-c1ccc([C@H](C)NC(=O)[C@@H]2C[C@@H](O)CN2C(=O)[C@@H](C(C)C)n2cc(-c3ccc(O[C@H]4C[C@H](NC(=O)C[C@@H]5N=C(c6ccc(Cl)cc6)c6c(sc(C)c6C)-n6c(C)nnc65)C4)nc3)cn2)cc1 [Example 268] | 98%
21 | < 0.01 µM | Cc1ncsc1-c1ccc([C@H](C)NC(=O)[C@@H]2C[C@@H](O)CN2C(=O)[C@H](C(C)C)n2cc(-c3cc(F)cc(OCCNC(=O)C[C@@H]4N=C(c5ccc(Cl)cc5)c5c(sc(C)c5C)-n5c(C)nnc54)c3)cn2)cc1 [Example 224] | 100%
22 | 0.01 to 0.1 µM | Cc1ncsc1-c1ccc([C@H](C)NC(=O)[C@@H]2C[C@@H](O)CN2C(=O)[C@@H](n2cc(-c3ccnc(O[C@H]4C[C@H](NC(=O)C[C@@H]5N=C(c6ccc(Cl)cc6)c6c(sc(C)c6C)-n6c(C)nnc65)C4)c3)cn2)C(C)(C)C)cc1 [Example 234] | 80.6%
23 | < 0.01 µM | Cc1ncsc1-c1ccc([C@H](C)NC(=O)[C@@H]2C[C@@H](O)CN2C(=O)[C@@H](NC(=O)COC/C=C\COCCNC(=O)C[C@@H]2N=C(c3ccc(Cl)cc3)c3c(sc(C)c3C)-n3c(C)nnc32)C(C)(C)C)cc1 [Example 146, (2S,4R)-1-[(2S)-2-(2-{[(2Z)-4-(2-{2-[(9S)-7-(4-chlorophenyl)-4,5,13-trimethyl-3-thia-1,8,11,12-tetraazatricyclo[8.3.0.0^2,^6]trideca-2(6),4,7,10,12-pentaen-9-yl]acetamido}ethoxy)but-2-en-1-yl]oxy}acetamido)-3,3-dimethylbutanoyl]-4-hydroxy-N-[(1S)-1-[4-(4-methyl-1,3-thiazol-5-yl)phenyl]ethyl]pyrrolidine-2-carboxamide] | 100%

Reference: US11554171B2, “Compounds and methods for the targeted degradation of bromodomain-containing proteins” (Arvinas Operations, Inc., priority 2015, dated 2023)
